Results reported in article PMC5750217 (Nature Communications, 2018).
Positions count from the first letter of the chain named.

Columns and labels:
[1] = biological target: T1, A1-T458S (mutant ASCT1) (Homo sapiens, UniProt P43007, T458S); assay: Two electrode voltage clamp, substrate-activated anion current in oocytes expressing A1-T458S; type: cell-based; details: NO3−-containing buffer, current at +60 mV, dash = substrate did not generate currents
T1 construct: expressed in transfected cells; host or cells: Xenopus laevis oocytes (cRNA injection)
T1 sequence (P43007 1-532 T458S): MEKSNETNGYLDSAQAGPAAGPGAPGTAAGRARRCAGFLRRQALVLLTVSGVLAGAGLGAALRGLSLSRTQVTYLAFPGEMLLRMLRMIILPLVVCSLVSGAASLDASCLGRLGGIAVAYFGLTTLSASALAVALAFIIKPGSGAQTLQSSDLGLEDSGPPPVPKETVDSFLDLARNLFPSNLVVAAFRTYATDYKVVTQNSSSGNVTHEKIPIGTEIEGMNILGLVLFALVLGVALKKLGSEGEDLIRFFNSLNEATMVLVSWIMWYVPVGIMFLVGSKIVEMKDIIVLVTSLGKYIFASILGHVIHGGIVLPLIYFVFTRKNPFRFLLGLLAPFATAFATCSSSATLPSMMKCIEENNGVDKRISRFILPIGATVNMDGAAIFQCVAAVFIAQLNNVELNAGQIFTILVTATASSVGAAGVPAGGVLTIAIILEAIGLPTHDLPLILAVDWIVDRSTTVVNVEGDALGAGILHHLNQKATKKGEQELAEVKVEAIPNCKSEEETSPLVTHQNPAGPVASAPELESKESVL
Experimental: All chemicals were obtained from Sigma unless otherwise stated. Stage V oocytes were harvested from female Xenopus laevis (frogs) which were obtained from Nasco (Fort Alkinson, USA). Frogs were anaesthetised with 6.5 mM tricaine neutralised with 7.14 mM sodium bicarbonate. After making an incision in the abdomen of the frog, ovarian sacs were removed and stored in OR-2 buffer (82.5 mM NaCl, 2 mM KCl, 1 mM MgCl2, 5 mM hemisodium HEPES, pH 7.5). This surgical procedure follows a protocol (#2016/970) approved by the University of Sydney Animal Ethics Committee under the Australian Code of Practice for the Care and Use of Animals for Scientific Purposes. […]
After 2–4 days of microinjection, current recordings were made using the two electrode voltage clamp technique with a Geneclamp 500 amplifier (Axon Instruments, Foster City, CA) interfaced with a MacLab 2e chart recorder (ADI Instruments, Sydney, Australia) using the chart software, and a Digidata 1322A (Axon Instruments) controlled by an IBM-compatible computer using the pClamp software (version 10, Molecular Devices, Union City, CA). […] Current–voltage relationships were calculated by subtracting steady state current measurements in the absence of substrate from corresponding current measurements in the presence of substrate. […]

[2] = biological target: T2, A1-T458S/T459C (mutant ASCT1) (Homo sapiens, UniProt P43007, T458S/T459C); assay: Radiolabelled uptake in oocytes expressing A1-T458S/T459C; type: cell-based; details: 10 µM L-[3H]substrate, 10 min, room temperature
T2 construct: expressed in transfected cells; host or cells: Xenopus laevis oocytes (cRNA injection)
T2 sequence (P43007 1-532 T458S/T459C): T1 sequence (P43007 1-532 T458S) with T459C
Experimental: Uptake of L-[^3H]amino acids (PerkinElmer Life Sciences) was measured in oocytes expressing wild-type and mutant ASCT1, and uninjected oocytes. Five oocytes were incubated in Cl^−-containing buffer with 10 µM L-[^3H]amino acids at room temperature. After 10 min, uptake was terminated by three rapid washes in ice-cold Cl^−-containing buffer followed by lysis in 50 mM NaOH and 1% SDS. L-[^3H]amino acids were measured by scintillation counting using a Trilux beta counter (PerkinElmer Life Sciences).

| Compound | EC50 of substrate-activated current [1] | Radiolabelled substrate uptake into oocytes (in words) [2] | EC50 [1] |
| --- | --- | --- | --- |
| NC(=O)CC[C@H](N)C(=O)O [L-glutamine] | does not respond | robust accumulation |  |
| N[C@@H](CO)C(=O)O [L-serine] |  | robust accumulation | 106 ± 4 µM |
